Reference: patent US20120213827A1, “PROCESS FOR CONTROLLED CRYSTALLIZATION OF AN ACTIVE PHARMACEUTICAL INGREDIENT FROM SUPERCOOLED LIQUID STATE BY HOT MELT EXTRUSION” (priority 2011, published 2012)

Experiment: Particle size analysis of dalcetrapib crystals (Malvern MasterSizer 2000, laser diffraction)
Assay type: physicochemical
Conditions: dispersant 0.1N HCl, sonicated 10 minutes
Procedure: The particle size distribution of dalcetrapib crystals from the bulk API and in the matrix of a hot-melt extruded composition produced according to Example 1 was determined according to the following method:
(§1) A Malvern MasterSizer 2000 was used for particle size measurement. The Fraunhofer optical model employed for analysis. The sample handling unit was a Hydro 2000S sonicator: Elma Model 9331. Sample measurement time was 20,000 snaps. The sample background time was 20,000 snaps. The dispersant media was 0.1N HCl, and the pump/stir speed was 2000 RPM.
Sample preparation was as follows: About 10-15 mg of the sample was weighed in 20 mL scintillation vial and 10 mL of de-ionized 0.1N HCl was added. The sample was vortexed for 15 seconds and then sonicated for 10 minutes @ 100% power.
The particle size distribution of dalcetrapib crystals in the matrices of hot-melt extruded compositions produced according to Example 5 was determined according to the following method:
as §1, with “MasterSizer®” for “MasterSizer”, “Fraunhofer®” for “Fraunhofer”, “RPM” for “RPM.”
Sample preparation was as follows: About 10-15 mg of the sample was weighed in a 20 mL scintillation vial and 10 mL of de-ionized 0.1N HCl was added. The sample was vortexed for 15 seconds and then sonicated for 10 minutes at 100% power.

- mean particle diameter D(0.1): 1.493 μm
- mean particle diameter D(0.5): 12.317 μm
- mean particle diameter D(0.9): 28.828 μm
SMILES: CCC(CC)CC1(C(=O)Nc2ccccc2SC(=O)C(C)C)CCCCC1 [bulk dalcetrapib, dalcetrapib]
